Data set [1] in a line: Plasma protein binding (equilibrium dialysis), dog. The format is in vitro ADME. As to conditions: pH 7.4, 37° C. On the procedure:
(§1) Below is provided the procedure for measuring plasma protein binding (using an equilibrium dialysis method). 745 μL of plasma was transferred into a 2 ml micro centrifuge tube. To that 5 μL of Compound A1 (150 μM) was added. Samples were mixed in the table top vortexer for 2 minutes. 50 μL plasma (n=2) was transferred in a pre-labeled 1.5 mL micro centrifuge tube treated as 0 hour sample.
(§2) The remaining 650 μL plasma sample were incubated for 30 minutes at 37° C. in a water bath. After 30 minute incubation, 50 μL plasma (n=2) was removed in a pre-labelled 1.5 mL micro centrifuge tube treated as 0.5 hour sample. 200 μL of the plasma sample (n=2) was transferred into the sample chamber which was indicated by the red ring. The red insert was placed into the base plate and 350 μL of buffer was transferred into the buffer chamber. Plates were incubated at 37° C. at approximately 100 RPM on an orbital shaker or 20 RPM on an up-and-down shaker for 4 hours. 50 μL of post dialysis-sample from the buffer and the plasma chambers were transferred into a pre-labelled micro centrifuged tube. 50 μL of plasma was added to the buffer samples and an equal volume of buffer (KH2PO4 Buffer pH 7.4) to the collected plasma samples. 150 μL of methanol containing internal standard (Tolbutamide 250 ng/ml) was added to precipitate the protein and release compound. […]
(Equilibrium dialysis compares concentrations on both sides of a semipermeable membrane.)

Data set [2] in a line: Plasma protein binding (equilibrium dialysis), monkey. The format is in vitro ADME. As to conditions: pH 7.4, 37° C. On the procedure: as §1, §2
Data set [3] in a line: Oral pharmacokinetics in rats. To be noted: Rat, 10 mg/kg. It counts as in vivo. On the procedure: The oral bioavailability of Compound A1 (free base) was evaluated in rats and mice. The protocol for the pharmacokinetics studies in rat is provided below.
All animals were fasted overnight (12 hours) before dosing and continued till 4.0 hours after administration of test item. Test item formulations were prepared in 1% Tween 80 and 99% media (0.5% Methyl cellulose, 4000cPs, pH 2.2). The blood samples (150 μL from each animal) were collected from the orbital sinus, and placed into a micro centrifuge tube containing disodium EDTA as an anticoagulant. Blood samples were centrifuged immediately with a speed of 1000 g for 10 min at 4° C. and separated plasma samples were frozen at below −80° C. and stored until analysis. The concentrations of test item in all formulations were analyzed by HPLC. The plasma concentrations of test item in all samples were analyzed by LC-MS/MS. Pharmacokinetic parameters (Cmax, AUC0-t, Tmax, and t^1/2) were estimated by using WinNonlin software. Results are provided in Table 3 for Compound A, A1, and Example 128 of WO 2012/151525 in rats and Compound A1 in mice.

The target in the next data set is PI3Kβ (Homo sapiens, UniProt P42338). Nature of the data set: Assay 1: Fluorescent (HTRF) determination of PI3 kinase enzyme activity, PI3Kβ. The format is biochemical. The source says:
Phosphoinositide 3 kinases (PI3K) belong to a class of lipid kinases that play a critical role in the regulation of several key cellular processes. The PI3K are capable of phosphorylating the 3-hydroxy position of phosphoinositols thereby generating second messengers involved in downstream signaling events. The homogenous time resolved fluorescence (HTRF) assay allows detection of 3,4,5-triphosphate (PIPS) formed as a result of phosphorylation of phosphotidylinositol 4,5-biphosphate (PIP2) by PI3K isoforms such as α, β, γ or δ.
PI3K isoform activity for α, β, γ or δ was determined using a PI3K human HTRF™ Assay Kit (Millipore, Billerica, Mass.) with modifications. All incubations were carried out at room temperature. 0.5 μl of 40× inhibitor (in 100% DMSO) or 100% DMSO were added to each well of a 384-well white plate (Greiner Bio-One, Monroe, N.C.) containing 14.5 μl 1× reaction buffer/PIP2 (10 mM MgCl2, 5 mM DTT, 1.38 μM PIP2) mix with or without enzyme, followed by 5 μl/well of 400 μM ATP and incubated for an additional 30 minutes. The reaction was terminated by adding 5 μl/well stop solution (Millipore, Billerica, Mass.). 5 μl of detection mix (Millipore, Billerica, Mass.) was then added to each well and incubated for 6-18 hours in the dark. HRTF ratio was measured on a microplate reader (BMG Labtech., Germany) at an excitation wavelength of 337 nm and emission wavelengths of 665 and 615 nm with an integration time of 400 msec counting delay of 50 msec.

A further data set deals with Female Wistar rats. Nature of the data set: Assay 7: Lipopolysaccharide induced pulmonary neutrophilia in female Wistar rat model. It counts as in vivo. As to conditions: 10 mg/kg, oral, LPS intratracheally, BAL fluid 6 hours after LPS. The procedure: After the quarantine period, fasted animals were randomized and divided into various groups depending on their body weights. The test compound (Compound A1) was prepared as a suspension in a vehicle consisting of 0.5% methylcellulose in which Tween 80 as a suspending agent. The compound or vehicle was administered by oral gavage at a volume of 10 mL/kg. Female Wistar rats were anaesthetized with ketamine and LPS solution was administered intratracheally one hour after compound administration at a dose of 1 mg/kg. 6 hours after LPS instillation, animals were exsanguinated under anaesthesia, and then the trachea was cannulated and the lungs were lavaged with 5 ml aliquots of heparinised PBS (1 unit/ml) four times through a tracheal cannula (total volume 20 mL). Bronchoalveolar lavage (BAL) fluid was stored at 2-8° C. until assayed for total cell and differential leukocyte count. Bronchioalveolar fluid was centrifuged (500×g for 10 minutes) and the resulting cell pellet was resuspended in 0.5 ml of heparinised saline. The total numbers of white blood cells were determined in BAL fluid or blood by using a blood cell counter and was adjusted to 1×10^6 cell/ml. Differential cell count was calculated manually. […] The number of each cell type among 300 white blood cells in the cell smear was determined and expressed as a percentage. The number of […] in each BALf or blood was calculated.

Molecules are shown by their SMILES.

Consider one compound from patent publication US20190202836A1, “SELECTIVE DUAL INHIBITORS OF PI3 DELTA AND GAMMA PROTEIN KINASES” (Rhizen Pharmaceuticals SA, priority 2014, published 2019).

Chain of PI3Kβ (P42338 whole entry, canonical isoform): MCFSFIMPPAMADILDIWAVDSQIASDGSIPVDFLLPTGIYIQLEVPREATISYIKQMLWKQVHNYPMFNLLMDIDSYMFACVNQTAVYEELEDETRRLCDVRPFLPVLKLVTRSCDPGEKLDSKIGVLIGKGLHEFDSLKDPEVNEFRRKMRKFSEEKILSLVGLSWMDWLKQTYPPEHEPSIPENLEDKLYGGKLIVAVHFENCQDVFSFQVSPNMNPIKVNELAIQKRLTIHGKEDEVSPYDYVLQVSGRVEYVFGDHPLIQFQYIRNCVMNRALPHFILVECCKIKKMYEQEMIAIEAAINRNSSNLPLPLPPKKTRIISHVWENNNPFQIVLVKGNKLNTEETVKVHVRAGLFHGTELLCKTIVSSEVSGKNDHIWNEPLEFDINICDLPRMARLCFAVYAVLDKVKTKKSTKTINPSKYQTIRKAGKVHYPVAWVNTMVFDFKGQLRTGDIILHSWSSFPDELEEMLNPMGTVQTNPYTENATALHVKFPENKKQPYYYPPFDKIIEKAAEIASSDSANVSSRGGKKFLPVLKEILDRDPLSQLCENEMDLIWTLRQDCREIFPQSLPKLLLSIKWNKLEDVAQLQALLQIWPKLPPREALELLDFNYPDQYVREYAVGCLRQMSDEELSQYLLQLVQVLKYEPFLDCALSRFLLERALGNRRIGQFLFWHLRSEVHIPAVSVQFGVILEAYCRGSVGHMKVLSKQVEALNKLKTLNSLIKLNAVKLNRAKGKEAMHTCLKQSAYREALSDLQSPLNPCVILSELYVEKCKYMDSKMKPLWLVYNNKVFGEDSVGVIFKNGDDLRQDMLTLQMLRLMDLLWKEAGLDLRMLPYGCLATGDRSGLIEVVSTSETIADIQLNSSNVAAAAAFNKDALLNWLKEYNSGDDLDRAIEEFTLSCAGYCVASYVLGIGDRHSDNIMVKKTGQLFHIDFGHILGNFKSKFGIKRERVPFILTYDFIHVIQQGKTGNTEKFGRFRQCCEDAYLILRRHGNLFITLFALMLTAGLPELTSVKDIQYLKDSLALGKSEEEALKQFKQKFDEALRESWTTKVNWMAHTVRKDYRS
Chain of PI3Kβ (P27986 whole entry partner, canonical isoform): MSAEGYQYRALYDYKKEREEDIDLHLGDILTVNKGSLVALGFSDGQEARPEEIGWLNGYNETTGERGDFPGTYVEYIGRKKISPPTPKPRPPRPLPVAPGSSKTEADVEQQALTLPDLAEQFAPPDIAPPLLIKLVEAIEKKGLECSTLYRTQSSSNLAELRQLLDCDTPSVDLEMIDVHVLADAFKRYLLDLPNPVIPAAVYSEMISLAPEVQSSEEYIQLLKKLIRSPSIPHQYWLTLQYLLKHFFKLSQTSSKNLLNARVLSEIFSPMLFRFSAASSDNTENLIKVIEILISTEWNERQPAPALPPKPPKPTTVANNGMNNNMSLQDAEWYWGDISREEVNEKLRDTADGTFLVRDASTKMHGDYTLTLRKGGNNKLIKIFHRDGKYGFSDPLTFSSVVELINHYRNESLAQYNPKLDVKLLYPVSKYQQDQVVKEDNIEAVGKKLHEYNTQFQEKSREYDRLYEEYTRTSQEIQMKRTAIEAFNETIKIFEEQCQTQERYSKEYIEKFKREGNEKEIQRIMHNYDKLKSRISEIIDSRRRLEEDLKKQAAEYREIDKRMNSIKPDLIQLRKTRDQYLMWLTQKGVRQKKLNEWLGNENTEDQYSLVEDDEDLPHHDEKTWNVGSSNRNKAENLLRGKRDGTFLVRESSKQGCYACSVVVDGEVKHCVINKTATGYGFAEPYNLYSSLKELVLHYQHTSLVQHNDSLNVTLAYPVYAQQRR

By fraction unbound is commonly meant the share of the substance not bound to proteins or other matrix. One may read the AUC(0-t) as exposure summed from dosing to a finite time, without extrapolation to infinity. Broadly, the Cmax is the peak of the concentration-time curve. One may read the Tmax as the time from dosing to the highest level. For orientation: half-life means the time needed for the level to fall by half in the phase considered. For orientation: inhibition means the share of the control response that was lost under treatment. The term IC50 denotes the midpoint of a concentration-inhibition curve. In the case of `COc1ccc(-c2nn([C@@H](C)c3oc4cccc(F)c4c(=O)c3-c3cccc(F)c3)c3ncnc(N)c23)cc1NS(C)(=O)=O` [Compound A1, (S)—N-(5-(4-amino-1-(1-(5-fluoro-3-(3-fluorophenyl)-4-oxo-4H-chromen-2-yl)ethyl)-1H-pyrazolo[3,4-d]pyrimidin-3-yl)-2-methoxyphenyl)methanesulfonamide], in data set [1], the unbound share (fraction unbound) at 4 h, 1 μM was 0.0415. The compound further gave a fraction unbound at 4 h, 1 μM in data set [2] of 0.0529. In data set [3], the “fold increase in AUC0-t as compared to Example 128 of WO 2012/151525” value is on record as 48 fold, the “fold increase in Cmax as compared to Example 128 of WO 2012/151525” value is reported as around 16 fold and the “fold increase in t1/2 as compared to Example 128 of WO 2012/151525” value is reported as around 1.6 fold. Also, in data set [3] (plasma), the AUC(0-t) amounted to 97.8 µM·h, the peak level (Cmax) was 11.4 µM, the Tmax stood at 1.83 h and the half-life is 2.45 h. The compound also showed an inhibition at 1 µM against PI3Kβ of 46.8%. For the same compound, the IC50 against PI3Kβ (HTRF enzyme assay) turned out to be 1360 nM. In addition, the “Fold-Selectivity PI3Kβ” value at PI3Kβ (selectivity profile, enzyme IC50) is listed as above 45 fold. Also, in the data set with Female Wistar rats, the “inhibition of neutrophil infiltration into the lungs compared to the control group” value is given as 65.29%.
